# Biological target: Histone-lysine N-methyltransferase EZH2 [Y641N] (UniProt Q15910, Y641N)
# Experiment: Test on EZH2 (Y641F) and EZH2 (Y641N) Inhibitory Activities
# Method: ProceduresCompounds at different concentrations were dissolved in 100% DMSO and transferred to test plates, and the final concentration of DMSO was 1%. Enzyme solution and substrate SAM solution were prepared with 1-fold reaction buffer (optimized Tris buffer). 5 uL of enzyme solution was added to the test plate and wells only added with 5 uL of reaction buffer were used as negative control wells. […] 5 uL of receptor solution was added and the plate was incubated away from light at room temperature for 60 min. 10 uL of donor solution was added and the plate was incubated away from light at room temperature for 30 min. The endpoint values were read on the Envision and the IC50 was calculated.Data CalculationData were fitted by GraphPad Prism 5 software and inhibition rate was calculated according to equation (1)Inh %=(Max−Signal)/(Max−Min)×100 (1)IC50 was calculated using equation (2)Y=Bottom+(Top−Bottom)/(1+10^((Log IC 50 −X)×Hill Slope))Y: inhibition rate; X: concentration of the compound
# Chain of Histone-lysine N-methyltransferase EZH2 [Y641N] (Q15910 whole entry Y641N): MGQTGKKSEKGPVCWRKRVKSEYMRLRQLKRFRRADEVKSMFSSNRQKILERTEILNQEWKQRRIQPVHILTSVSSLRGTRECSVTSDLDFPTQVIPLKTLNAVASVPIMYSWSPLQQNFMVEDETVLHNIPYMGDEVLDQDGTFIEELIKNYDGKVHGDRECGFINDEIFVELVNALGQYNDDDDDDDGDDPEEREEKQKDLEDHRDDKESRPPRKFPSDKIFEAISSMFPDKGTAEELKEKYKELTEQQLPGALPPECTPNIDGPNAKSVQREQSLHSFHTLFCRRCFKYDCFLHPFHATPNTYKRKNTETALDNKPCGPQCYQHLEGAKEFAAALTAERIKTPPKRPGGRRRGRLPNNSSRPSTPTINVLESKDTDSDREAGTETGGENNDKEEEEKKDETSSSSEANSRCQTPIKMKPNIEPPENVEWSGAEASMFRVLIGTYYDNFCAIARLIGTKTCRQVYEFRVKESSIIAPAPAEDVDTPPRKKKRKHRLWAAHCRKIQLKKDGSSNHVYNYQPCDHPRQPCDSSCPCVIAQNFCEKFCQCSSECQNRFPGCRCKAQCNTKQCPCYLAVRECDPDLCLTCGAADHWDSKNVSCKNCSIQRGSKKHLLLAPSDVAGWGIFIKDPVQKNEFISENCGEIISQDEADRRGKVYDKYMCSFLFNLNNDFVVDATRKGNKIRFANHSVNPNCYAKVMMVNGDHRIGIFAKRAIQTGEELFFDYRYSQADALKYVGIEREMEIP
structure (smiles),measurement,value
"CCN(c1cc(O[C@H]2C[C@H](N3CCCCC3)C2)cc(C(=O)NCc2c(CO)cc(C)[nH]c2=O)c1C)C1CCC(F)(F)CC1 [US12390472, Example 95]",IC50,3.1 nM
